The values that follow come from patent publication US7226625B2, “Identification of compositions, compositions, and methods of treatment of obesity and overweight conditions” (Phytomyco Research Corporation, priority 2003, dated 2007).

For experiment [1] the following is noted: in vivo; cited from earlier work.
The test system of the next experiment is 3T3-L1 preadipocytes. As to the kind of experiment: adipocyte differentiation blocking assay (GPDH level in cell lysates). The settings on record: after 10-fold dilution (FIG. 6). Format: cell-based, mouse. The text has this: The adipocyte differentiation blocking assay is an enzyme assay that examines the ability of compounds to block differentiation of preadipocytes to adipocytes by quantifying the level of GPDH in cell lysates (inhibition of adipogenesis). Based on preliminary results using this assay, we selected two plant extracts (designated as PM765, and as PM902, respectively) and collected eluant fractions isolated by HPLC, the extracts being divided into 40 or 120 fractions in collection wells (collected at 30 second or 1 minute HPLC eluant flow time intervals) (FIG. 3). […] MDI treatment is defined as Differentiation media causes the 3T3-L1 preadipocytes (fibroblast cells) to differentiate into adipocytes (fat cells). Differentiation media is composed of: • Per 100 ml of differentiation media • 90 mL DMEM media • 10 mL FCS • 1% pen/strep • 1 ml methylisobutylxanthine (stock 11.5 mg/mL) • 100 ul dexamethasone (stock 0.4 mg/mL) • 1 ml insulin (stock 1 mg/mL)
Inhibition of adipocyte differentiation is assayed by measuring the levels of the enzyme glycerol-3-phosphate dehydrogenase (GPDH). […]
In this assay pre-adipocyte cells require 10 to 15 days to differentiate into adipocytes. […] After cells have undergone the 10–15 days required to differentiate, cells are assessed for GPDH activity.
Results are expressed as a percentage of the untreated control average. […]

The subject of a further experiment is adipocytes. As to the kind of experiment: assays of this invention (lipolysis, adipocyte differentiation, de-differentiation). Format: cell-based, mouse. The procedure:
Assay 1. Lipolysis Assay.
In this assay, pre-adipocyte cells are seeded in 96-well plates and are induced to convert to adipocytes over the course of a 10–15 day treament with lipolytic reagents. After cells have converted to adipocytes, the cells are starved, and then subsequently treated with or exposed to test compounds or mixtures of compounds or extracts of plants or fractionated extracts of plants. The adipocytes are treated with test compounds in the presence of a surrounding cell medium. Over the course of 1 to 3 hours after exposure to the test compounds or mixture of compounds, the amount of glycerol present in the cell medium is measured. Glycerol and fatty acids are hydrolysis products of triglycerides, and glycerol is released from cells after enzymatic hydrolysis or breakdown of lipids.
Assay 2. […]
In this assay pre-adipocyte cells require 10 to 15 days to differentiate into adipocytes. […] After cells have undergone the 10–15 days required to differentiate, cells are assessed for GPDH activity. […]
This assay comprises a colorimetric assay to screen for compounds and mixtures of compounds that induce the differentiation of adipocytes to preadipocytes. The presence of such compounds is determined by measuring the relative levels of the enzyme GPDH. […] GPDH levels present in the cells are measured to determine if the cells still express the adipocyte phenotype. […]

The subject of the next experiment is 3T3-L1 cells. The settings on record: GPDH activity, oil red O staining; cited from earlier work.
The next experiment has as its system leptin. The settings on record: cited from earlier work.

As for `CCCCCCCCCCC[C@@H](C[C@@H]1OC(=O)[C@H]1CCCCCC)OC(=O)[C@H](CC(C)C)NC=O` [Orlistat], the “decrease of the amount of fat absorbed from the diet” value in experiment [1] was “about 30%”.

Regarding `C=C[C@](C)(O)CC[C@@H]1[C@@]2(C)CCCC(C)(C)[C@@H]2CC[C@@]1(C)O` [sclareol, labdane-14-ene-8,13-diol], in the experiment on 3T3-L1 preadipocytes, the “blocking of adipocyte differentiation, as a percent of positive control” value is on record as “blocking of adipocyte differentiation”. Also, in the experiment on adipocytes, the “activity in the assays of this invention” value is on record as “active”.

Take `CC1(C)CCC[C@]2(C)[C@H]3CC(=O)O[C@]3(C)CC[C@@H]12` [sclareolide, 3aR-[3a-alpha, 5a-beta, 9a-alpha, 9b-alpha]-decahydro-3a,6,6,9a-tetramethylnaphtho[2,1-b]furane-2(1H)-one]: the “blocking of adipocyte differentiation, as a percent of positive control” value with 3T3-L1 preadipocytes was “blocking of adipocyte differentiation”. Further, the “activity in the assays of this invention” value in the experiment on adipocytes is given as “active”.

“myostatin: adipocyte blocking agent, inhibitor of skeletal muscle growth, member of the TGF-β superfamily”: the differentiation of preadipocytes result with 3T3-L1 cells is reported as “inhibits differentiation of preadipocytes”. In addition, the “effect on leptin levels” value in the experiment on leptin is listed as “no effect”.
